From patent US20100179130A1, “USE OF PIPERINE AND DERIVATIVES THEREOF FOR THE THERAPY OF NEUROLOGICAL CONDITIONS” (SYNGIS Bioscience GmbH & Co. KG, priority 2007, published 2010)

Columns and labels:
[1] = test system: neural stem cells; assay: In vitro differentiation assay on adult neural stem cells (beta-III-tubulin promoter firefly/Renilla dual luciferase reporter); format: cell-based, rat; conditions: for Stimulation factor for differentiation of neural stem cells / fold induction at 1 µM: 1 μM final compound concentration, in comparison to sham treatment; for differentiation of neural stem cells to neurons, dose dependence: 0.2 μM up to 25, 50 or 100 μM, compared with sham and 1 μM retinoic acid; for fold induction at 1 µM: Rattus norvegicus, Neural stem cell, read-out: Stimulation factor for differentiation of neural stem cells
Source text: The neuroregenerative effect of the compounds according to the present invention can be assayed in vitro by measuring their stimulation of the differentiation of neural stem cells. Therefore, adult neural stem cells have to be isolated and subsequently cultivated in a suitable culture medium. After several passages in vitro the stem cells have to be co-transfected with a DNA construct coding for two discriminable reporter proteins one of them under the control of a constitutive promoter and the other under the control of a beta-III-tubulin promoter. The beta-III-tubulin promoter is induced during the process of neural stem cell differentiation; therefore the reporter protein under the control of this promoter serves as a marker for the stem cell differentiation in such an in vitro dual reporter assay (Schneider et al., J Clin Investigation 2005; 115:2083-2098). The person skilled in the art knows several suitable constitutive promoters such as the SV40-promoter, the TK-promoter, or the CMV-promoter. As discriminable reporter proteins for such a dual reporter assay one can use discriminable luciferases such as firefly luciferase and Renilla luciferase. The transfected cells have to be incubated with the test compound and with a positive and negative controls for normalization and background correction. As a positive control compound one can use retinoic acid (Guan et al., Cell Tissue Res. 2001; 305:171-176; Jacobs et al., Proc. Natl. Acad. Sci. USA 2006; 103:3902-3907), a suitable negative control is the sham treatment of the cells. The neroregenerative activity of the test compound is determined as the ratio of the signal of the beta-III-tubulin promoter controlled reporter versus the signal of the constitutively expressed reporter and is expressed as fold from the control. This assay is suitable to assess the neuroregenerative activity of piperine and derivatives thereof, but also can be used to screen for other potential neuroregenerative compounds. Preferably, such a screening can be used to test compounds which are already known to be suitable as a medicament in terms of its toxicology, bioavailability, solubility, stability etc.
Neural stem cells were isolated from the subventricular zone of 4 week-old male Wistar rats as described (Maurer et al, Proteome Sci. 2003; 1:4). Cells were cultivated in Neurobasal medium (Invitrogen) supplemented with B27 (Invitrogen), 2 mM L-glutamine, 100 units/ml penicillin, 100 units/ml streptomycin, 20 ng/ml […] (EGF), 20 ng/ml fibroblast growth factor-2 (FGF-2), and 2 μg/ml heparin. Once a week the neural stem cells were passaged and experiments were performed after 4 weeks in vitro. For DNA transfection, the cells were dissociated and plated on poly-L-ornithin/laminin-coated 96-well plates at a density of 50.000 cells/well. Cotransfection with the pGL3-p-βIII-tubulin vector (100 ng/well) and the pRL SV40 vector (100 ng/well) was carried out according to the FuGene6 Transfection protocol (Roche). The pRL SV40 vector (Promega) served as an internal control vector.
To amplify the class III β-tubulin gene promoter (fragment −450-+54), rat genomic DNA was used as a template for PCR (Dennis et al., Gene 2002; 294:269-277). The amplified fragment was inserted into the Mlu I/Xho I site of the pGL3-Basic firefly luciferase reporter vector (Promega) to generate the pGL3-p-βIII-tubulin experimental vector.
After overnight incubation, the plate was decanted and given in 8-fold replicates fresh medium containing piperine (Sigma) or vehicle. As a positive control for in vitro differentiation, stem cells were treated by adding 1 μM retinoic acid (Sigma) to the medium missing the mitogens.
After 48 hrs, the cells were harvested to prepare the cellular extracts for luciferase assay following the directions of the manufacturer (Promega). […]

[2] = test system: motoneural cell line NSC-34; assay: Anti-apoptosis assay on motoneural cell line, staurosporine induced apoptosis, Caspase-Glo 3/7; format: cell-based; conditions: for degree of apoptosis relative to the staurosporine control: compound 1 μM in the presence of staurosporine 0.1 μM
Method: Instead of the SH-SY5Y cells used in Example 3 and 4, this analysis was performed with motoneural cell line NSC-34. […] Incubation with staurosporine (SP; 0.1 μM) alone served as positive control and incubation with vehicle served as negative control. The degree of apoptosis relative to the staurosporine control is shown in FIG. 4 (vehicle (sham): 6%; staurosporine (SP): 100%; piperine plus staurosporine: 70%; derivative B plus staurosporine: 55%; derivative E plus staurosporine: 75%; derivative G plus staurosporine: 76%; derivative K plus staurosporine: 83%; derivative S plus staurosporine: 77%; derivative U plus staurosporine: 71%).

[3] = test system: SH-SY5Y neuronal cells; assay: In vitro anti-apoptosis assay, staurosporine induced apoptosis, Caspase-Glo 3/7; format: cell-based, human; conditions: for degree of apoptosis relative to the staurosporine control: compound 1 μM in the presence of staurosporine 0.1 μM
[4] = test system: SH-SY5Y neuronal cells; assay: In vitro viability assay, cells stably transfected with constitutive Renilla luciferase; conditions: 1 μM, 5 h
Source text: The viability assay allows for further assessment of test compounds regarding their effect on cells such as neurons. […] Subsequently, the signal generated by the reporter construct serves as a readout for the viability of the cells in the presence of the test compound. The assay enables the evaluation of potential neurotoxic effects of the test compound itself.
The effect of a compound on the viability of neuronal cells can be assayed in vitro by measuring the survival of neuronal cells transfected with a reporter construct under a constitutive promoter. SH-SY5Y neuronal cells stably transfected with a Renilla luciferase construct under the SV40 promoter were seeded in 96-well plates at a density of 2.5×10^4 cells per well. Following overnight incubation the cells were stimulated with medium containing piperine or vehicle. Staurosporine (0.1 μM) served as positive control. The Renilla luciferase activity was measured 5 h later using a luminometer (Berthold Technologies, Mithras LB 940). Piperine was tested in a range from 0.1 nM to 100 μM final concentration.

Compound	differentiation of neural stem cells to neurons, dose dependence [1]	fold induction at 1 µM [1]	degree of apoptosis relative to the staurosporine control ([3]; SH-SY5Y) [%]	other results
3-(Chloro-3,4-dihydro-2H-benzo[b][1,4]dioxepin-7-yl)N-cyclohexyl-acrylamide				Stimulation factor for differentiation of neural stem cells [1]: 1.7 x-fold
NC1(C(=O)/C=C/c2ccc3c(c2)OCO3)CCCCCC1 [1-(3-trans-benzo-1,3-dioxol-5-ylacryloyl)cycloheptylamine]	significantly stimulates	4	49	degree of apoptosis relative to the staurosporine control [2]: 55%
NC1(C(=O)/C=C/c2ccc3c(c2)OCO3)CCCC1 [1-(3-trans-benzo-1,3-dioxol-5-ylacryloyl)cyclopentylamine]	significantly stimulates	1.4	77	
O=C(/C=C/c1ccc2c(c1)OCO2)N1CCCC1 [1-(3-trans-benzo-1,3-dioxol-5-ylacryloyl)pyrrolidine]	significantly stimulates	1.3	72	
O=C(C=Cc1ccc2c(c1)OCCCO2)N1CCCCCC1 [1-Azepan-1-yl-3-(3,4-dihydro-2H-benzo[b][1,4]dioxepin-7-yl)-propenone]	significantly stimulates		83	Stimulation factor for differentiation of neural stem cells [1]: 6.1 x-fold; degree of apoptosis relative to the staurosporine control [2]: 83%; viability of neuronal cells [4]: did not show reduced viability
O=C(C=Cc1cc(Cl)c2c(c1)OCCO2)N1CCCCCC1 [1-Azepan-1-yl-3-(8-chloro-2,3-dihydro-benzol[1,4]dioxin-6-yl)-propenone]				Stimulation factor for differentiation of neural stem cells [1]: 1.8 x-fold
O=C(C=Cc1cc(Cl)c2c(c1)OCCCO2)N1CCCCCC1 [1-Azepan-1-yl-3-(9-chloro-3,4-dihydro-2H-benzo[b][1,4]dioxepin-7-yl)-propenone]				Stimulation factor for differentiation of neural stem cells [1]: 2.2 x-fold
CC1CCN(C(=O)C=Cc2ccc3c(c2)OCO3)CC1 [1-[3-(1,3-benzodioxol-5-yl)acryloyl]-4-methylpiperidine]	significantly stimulates	1.9		
CCCOc1ccc(C=CC(=O)N2CCCCCC2)cc1 [1-[3-(4-propoxyphenyl)acryloyl]azepane]		2.3		
CCCOc1ccc(C=CC(=O)N2CCCCC2)cc1 [1-[3-(4-propoxyphenyl)acryloyl]piperidine]	significantly stimulates	4	81	degree of apoptosis relative to the staurosporine control [2]: 77%
O=C(C=Cc1ccc2c(c1)OCO2)NCC1CCCO1 (stereo not shown) [3-(1,3-benzodioxol-5-yl)-N-(tetrahydro-2-furanylmethyl)acrylamide]		1.5		
O=C(C=Cc1ccc2c(c1)OCO2)NC1CC2CCC1C2 (stereo not shown) [3-(1,3-benzodioxol-5-yl)-N-bicyclo[2.2.1]hept-2-ylacrylamide]		1.7		
O=C(C=Cc1ccc2c(c1)OCO2)NC1CCCCCCC1 [3-(1,3-benzodioxol-5-yl)-N-cyclooctylacrylamide]	significantly stimulates	5	77	degree of apoptosis relative to the staurosporine control [2]: 75%
CCOc1ccc(C=CC(=O)NC2CCCO2)cc1 (stereo not shown) [3-(4-ethoxyphenyl)-N-(tetrahydro-2-furanyl)acrylamide]		1.5		
O=C(C=Cc1ccc2c(c1)OCO2)NC1=NCCS1 [3-Benzol[1,3]dioxol-5-yl-N-(4,5-dihydro-thiazol-2-yl)-acrylamide]	significantly stimulates		79	Stimulation factor for differentiation of neural stem cells [1]: 4.6 x-fold; degree of apoptosis relative to the staurosporine control [2]: 76%; viability of neuronal cells [4]: did not show reduced viability
O=C(/C=C/c1ccc(Cl)cc1)N1CCCCC1 [(2E)-3-(4-chlorophenyl)-1-piperidylprop-2-en-1-one]	significantly stimulates		60	Stimulation factor for differentiation of neural stem cells [1]: 4.4 x-fold; degree of apoptosis relative to the staurosporine control [2]: 71%; viability of neuronal cells [4]: did not show reduced viability
CCCOc1ccc(C=CC(=O)NC2CCCCCC2)cc1 [N-cycloheptyl-3-(4-propoxyphenyl)acrylamide]	significantly stimulates	1.7		
CCOc1ccc(C=CC(=O)NC2CCCCC2)cc1 [N-cyclohexyl-3-(4-ethoxyphenyl)acrylamide]		1.7		
COc1ccc(C=CC(=O)NC2CCCCCCC2)cc1 [N-cyclooctyl-3-(4-methoxyphenyl)acrylamide]	significantly stimulates	1.9		
CCCOc1ccc(C=CC(=O)NC2CCCC2)cc1 [N-cyclopentyl-3-(4-propoxyphenyl)acrylamide]	significantly stimulates	1.6		
COc1cccc(NC(=O)/C=C/c2ccc(Cl)cc2)c1 [SB366791, reference compound]				inhibition of the neuroregenerative effect of piperine ([1]; SB366791 10 μM co-incubated with 10 μM piperine): did not result in any inhibition; inhibition of the neuroprotective effect of piperine ([3]; SB366791 10 nM to 100 nM with piperine 10 μM and staurosporine 0.1 μM): did not result in any inhibition
COc1cc(CNC(=O)CCCC/C=C/C(C)C)ccc1O [capsaicin, reference compound]				stimulating effect on the differentiation of neural stem cells ([1]; 0.1 nM to 100 μM final concentration): no stimulating effect; anti-apoptotic effect compared to piperine (10 μM) ([3]; capsaicin 10 μM with staurosporine 0.1 μM): only a marginal anti-apoptotic effect
CN[C@@H]1C[C@H]2O[C@@](C)([C@@H]1OC)n1c3ccccc3c3c4c(c5c6ccccc6n2c5c31)C(=O)NC4 [staurosporine, reference compound]				degree of apoptosis relative to the staurosporine control (staurosporine alone) ([2]; staurosporine 0.1 μM alone, positive control): 100%; degree of apoptosis relative to the staurosporine control (staurosporine alone) ([3]; staurosporine 0.1 μM alone, positive control, SH-SY5Y): 100%
